Results on eleven compounds are retold here after ChEMBL document CHEMBL1201862, “PubChem BioAssay data set” (2004).

Molecules are shown by their SMILES.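 Where inhibition never reached the appropriate level, the endpoint shown equals the highest concentration tested. Otherwise, values were interpolated linearly from a five-concentration, 48-hour dose response in 96-well plates. Abbreviation: GI50, concentration required for 50% inhibition of growth.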 Calls of active or inactive are those of the source. No stated cut-off is given here; in the data, active = GI50 up to about 1.1 µM and inactive = higher.

Test systems include BT-549; DU-145; EKVX; HCT-15; HL-60; HOP-62; HOP-92; IGROV-1; K562; KM12; MDA-MB-435; NCI-H226; NCI-H23; NCI-H522; RXF 393; SW-620; T47D; U-251; UACC-257; UO-31.
Holding throughout (assay): NCI anticancer screen, dose series, 48 h

In the case of `COc1cc(/C=C2\NC(=O)N(/C=C3\C(=O)Oc4ccccc4C3=O)C2=O)ccc1O`, the GI50 with BT-549 is 43 µM (inactive); with DU-145 it was 87.1 µM (inactive); in the experiment with EKVX, > 100 µM (inactive); with HCT-15 it was 39.3 µM; in the experiment with HL-60, 20.7 µM (inactive); in the experiment with HOP-62 it was 61.2 µM (inactive). The GI50 in the experiment on HOP-92 was > 100 µM (inactive); in the experiment on IGROV-1 it was 62.7 µM (inactive); with K562, > 100 µM (inactive); with KM12 it was 54.1 µM (inactive); in the experiment on MDA-MB-435, > 100 µM (inactive); in the experiment on NCI-H226 it was > 100 µM (inactive). In addition, the GI50 is 80.2 µM (inactive) in the experiment with NCI-H23; 29.2 µM (inactive) in the experiment on NCI-H522; 25.1 µM (inactive) with RXF 393; > 100 µM (inactive) with SW-620; > 100 µM (inactive) in the experiment on T47D; 76.6 µM (inactive) in the experiment with U-251. The values for the GI50 with UACC-257 and with UO-31 were > 100 µM (inactive) and 44.4 µM (inactive), respectively.

As for `Cc1occc1C(=S)Nc1ccc(Cl)c(C(=O)OC(C)C2CC2)c1` (stereo unspecified), the GI50 was 22.5 µM (inactive) in the experiment on BT-549; 28.1 µM (inactive) in the experiment on DU-145; 19.1 µM (inactive) with EKVX; 18.5 µM in the experiment with HCT-15; 24.2 µM (inactive) with HL-60; 17.8 µM (inactive) in the experiment with HOP-62. The GI50 with HOP-92 is 23.5 µM (inactive); in the experiment on IGROV-1, 16 µM (inactive); in the experiment on KM12, 16.3 µM (inactive); with MDA-MB-435, 24.8 µM (inactive); in the experiment on NCI-H226 it was 15.5 µM (inactive); in the experiment with NCI-H23, 15.6 µM (inactive). Further, the GI50 was 14.4 µM (inactive) with NCI-H522; 20.4 µM (inactive) in the experiment with RXF 393; 35.8 µM (inactive) in the experiment with SW-620; 19.1 µM (inactive) in the experiment with T47D; 23.9 µM (inactive) in the experiment with U-251; 30.3 µM (inactive) with UACC-257. In the experiment on UO-31, the GI50 was 14.7 µM (inactive).

Consider `COc1ccccc1Nc1nc(N)nc(N)c1N`, for which the GI50 in the experiment on BT-549 was > 100 µM (inactive); in the experiment with DU-145, > 100 µM (inactive); with EKVX it was > 100 µM (inactive); in the experiment with HCT-15, 62.1 µM; with HL-60, 29.1 µM (inactive); with HOP-62, > 100 µM (inactive). In addition, the GI50 in the experiment on HOP-92 was > 100 µM (inactive); in the experiment on IGROV-1, 72.6 µM (inactive); in the experiment on K562, 45.1 µM (inactive); in the experiment with KM12, > 100 µM (inactive); in the experiment on MDA-MB-435, 27.5 µM (inactive); in the experiment with NCI-H226, > 100 µM (inactive). Moreover, the GI50 was 66.1 µM (inactive) in the experiment on NCI-H23; 18.1 µM (inactive) in the experiment with NCI-H522; > 100 µM (inactive) in the experiment with RXF 393; 27.2 µM (inactive) in the experiment on SW-620; 58.5 µM (inactive) in the experiment with T47D; 64.3 µM (inactive) in the experiment with U-251. The GI50 in the experiment on UACC-257 is 60.3 µM (inactive); in the experiment on UO-31, > 100 µM (inactive).

With `Nc1sc2c(c1C(=O)c1ccc(Cl)c(Cl)c1)CCCC2`, the GI50 with BT-549 was 20.3 µM (inactive); in the experiment with DU-145 it was > 100 µM (inactive); in the experiment with EKVX it was 29.1 µM (inactive); in the experiment with HCT-15, 50.6 µM; in the experiment with HL-60 it was 22.6 µM (inactive); in the experiment with HOP-62, 83.6 µM (inactive). Further, the GI50 in the experiment on HOP-92 is 24.5 µM (inactive); in the experiment on K562, 25.5 µM (inactive); with KM12 it was 22.3 µM (inactive); in the experiment with MDA-MB-435, 30.8 µM (inactive); in the experiment on NCI-H226, > 100 µM (inactive); with NCI-H23, 45.3 µM (inactive). Besides, the GI50 in the experiment with NCI-H522 was 21 µM (inactive); in the experiment with RXF 393, 27.2 µM (inactive); in the experiment with SW-620 it was 35.7 µM (inactive); in the experiment with T47D, 36.2 µM (inactive); with U-251 it was 45 µM (inactive); in the experiment with UACC-257, 54.8 µM (inactive). Also, the GI50 in the experiment on UO-31 is 58.2 µM (inactive).

As for `CN(C)CCCSc1nc2c(c(=N)n1-c1ccccc1)c(=S)n(-c1ccccc1)c(=S)n2-c1ccccc1`, the GI50 was 1.68 µM (inactive) in the experiment on BT-549; 1.67 µM (inactive) with DU-145; 1.91 µM (inactive) with EKVX; 1.61 µM in the experiment on HCT-15; 0.798 µM (active) with HL-60; 1.8 µM (inactive) in the experiment on HOP-62. Moreover, the GI50 is 1.8 µM (inactive) with HOP-92; 1.83 µM (inactive) in the experiment on IGROV-1; 0.459 µM (active) with K562; 1.83 µM (inactive) in the experiment on KM12; 1.72 µM (inactive) in the experiment on MDA-MB-435; 4.74 µM (inactive) in the experiment on NCI-H226. For the same compound, the GI50 is 2.07 µM (inactive) in the experiment with NCI-H23; 1.69 µM (inactive) in the experiment on NCI-H522; 1.57 µM (inactive) in the experiment with RXF 393; 1.79 µM (inactive) with SW-620; 2.01 µM (inactive) with T47D; 1.75 µM (inactive) in the experiment with U-251. The GI50 in the experiment with UACC-257 is 1.77 µM (inactive).

For `COc1cccc(/C=C\c2ccnc3ccccc23)c1`, the GI50 with BT-549 was > 10 µM (inactive); in the experiment on DU-145 it was > 10 µM (inactive); with EKVX it was > 10 µM (inactive); in the experiment with HCT-15 it was > 10 µM; in the experiment on HL-60 it was > 10 µM (inactive); in the experiment with HOP-62, > 10 µM (inactive). The GI50 in the experiment on HOP-92, in the experiment on IGROV-1, in the experiment with K562, in the experiment on KM12, with MDA-MB-435 and with NCI-H226 was > 10 µM (inactive) throughout. The GI50 in the experiment on NCI-H23, with NCI-H522, in the experiment on RXF 393, in the experiment with SW-620, in the experiment on T47D and with U-251 was > 10 µM (inactive) in each case. Besides, the GI50 in the experiment with UACC-257 and in the experiment on UO-31 was > 10 µM (inactive) in each case.

In the case of `NS(=O)(=O)c1c(O)c2ccccc2oc1=O`, the GI50 with BT-549, in the experiment on DU-145, with EKVX, with HL-60, in the experiment on HOP-62 and in the experiment with HOP-92 was > 100 µM (inactive) each time. Moreover, the GI50 in the experiment with IGROV-1, with K562, in the experiment with KM12, in the experiment with MDA-MB-435, with NCI-H226 and with NCI-H23 was > 100 µM (inactive) throughout. Also, the GI50 in the experiment with NCI-H522, in the experiment on RXF 393, in the experiment on SW-620, in the experiment with T47D, in the experiment with U-251 and in the experiment on UACC-257 was > 100 µM (inactive) throughout. Moreover, in the experiment with UO-31, the GI50 was > 100 µM (inactive).

Take `CCOC(=O)Nc1cc2c(c(N)n1)N=C(c1ccc(OC)cc1)CN2`: the GI50 was < 0.01 µM (active) in the experiment on BT-549; 0.000407 µM (active) with DU-145; 0.00104 µM (active) with EKVX; 0.000621 µM with HCT-15; 0.0015 µM (active) in the experiment with HL-60; 0.00015 µM (active) with HOP-62. For the same compound, the GI50 with HOP-92 was 0.508 µM (active); with K562 it was < 0.01 µM (active); with KM12, 0.000446 µM (active); with MDA-MB-435, < 0.0001 µM (active); with NCI-H226, 0.368 µM (active); with NCI-H23, 0.0692 µM (active). Further, the GI50 in the experiment with NCI-H522 was 0.00277 µM (active); in the experiment on RXF 393, 0.0112 µM (active); with SW-620, < 0.0001 µM (active); with T47D, 0.582 µM (active); with U-251, < 0.0001 µM (active); in the experiment with UACC-257, 0.186 µM (active). Further, the GI50 in the experiment on UO-31 was 0.206 µM (active).

As for `O=C1/C(=C\c2cccc(Oc3ccccc3)c2)SC(c2ccccc2)N1c1ccc(Cl)cc1` (stereo unspecified), the GI50 with BT-549 is 28.2 µM (inactive); in the experiment with DU-145, 65.8 µM (inactive); in the experiment on EKVX it was 80.7 µM (inactive); with HCT-15, 7.55 µM; in the experiment on HL-60, 10.1 µM (inactive); in the experiment on HOP-62, > 57.1 µM (inactive). The GI50 in the experiment on HOP-92 is 61.1 µM (inactive); with K562 it was 2.64 µM (inactive); with KM12, 12.6 µM (inactive); with MDA-MB-435, 2.24 µM (inactive); with NCI-H226, > 100 µM (inactive); with NCI-H23, 15.8 µM (inactive). Besides, the GI50 with NCI-H522 is 10.2 µM (inactive); with RXF 393, 19.5 µM (inactive); in the experiment with SW-620, 27.7 µM (inactive); in the experiment with T47D it was 5.37 µM (inactive); with U-251 it was 50.5 µM (inactive); in the experiment on UACC-257 it was 41.9 µM (inactive). In addition, the GI50 with UO-31 was 16 µM (inactive).

With `CC1(C)N=C(N)N=C(N)N1c1ccc(CCCCc2ccc(Cl)cc2Cl)cc1`, the GI50 in the experiment on BT-549 was 1.85 µM (inactive); in the experiment on DU-145 it was 1.92 µM (inactive); in the experiment on EKVX, 15.1 µM (inactive); in the experiment with HCT-15, 5.04 µM; in the experiment on HL-60, 0.461 µM (active); in the experiment on HOP-62 it was 1.08 µM (active). Further, the GI50 with HOP-92 was 4.08 µM (inactive); in the experiment with IGROV-1 it was 0.451 µM (active); in the experiment with K562, 42.2 µM (inactive); in the experiment on KM12 it was 0.63 µM (active); with MDA-MB-435, 0.598 µM (active); in the experiment on NCI-H23, 0.339 µM (active). Further, the GI50 in the experiment with NCI-H522 is 0.433 µM (active); with RXF 393, 0.891 µM (active); with SW-620, 0.356 µM (active); in the experiment on T47D it was 1.29 µM (inactive); in the experiment on U-251 it was 0.245 µM (active); in the experiment with UACC-257, 0.659 µM (active). Further, the GI50 in the experiment on UO-31 was 21.2 µM (inactive).

Turning to `CSc1nc(SC)c2c(C)c(Br)[nH]c2n1`, the GI50 was > 100 µM (inactive) with BT-549; > 100 µM (inactive) in the experiment with DU-145; 70.5 µM (inactive) in the experiment with EKVX; > 100 µM in the experiment with HCT-15; > 100 µM (inactive) with HL-60; > 100 µM (inactive) with HOP-62. The GI50 with HOP-92, in the experiment on IGROV-1, in the experiment on KM12, in the experiment with MDA-MB-435, in the experiment with NCI-H226 and in the experiment with NCI-H23 was > 100 µM (inactive) throughout. The GI50 in the experiment on NCI-H522, in the experiment with RXF 393, in the experiment with SW-620, in the experiment with T47D, in the experiment with U-251 and in the experiment with UO-31 was > 100 µM (inactive) each time.
